Measured values taken from patent US9402398B2, “Herbicidal compounds” (SYNGENTA PARTICIPATIONS AG, priority 2012, dated 2016).

Tests used:
Format in all cases: in vivo
[1] = test system: Alopecurus myosuroides (ALOMY); assay: Herbicidal glasshouse test, post-emergence; settings: post-emergence (sprayed after 8 days cultivation), 1000 g/h, evaluated after 13 days
Method: (§1) Seeds of a variety of test species are sown in standard soil in pots (Alopecurus myosuroides (ALOMY), Setaria faberi (SETFA), Echinochloa crus-galli (ECHCG), Solanum nigrum (SOLNI), Amaranthus retoflexus (AMARE), Ipomoea hederacea (IPOHE)). After cultivation for one day (pre-emergence) or after 8 days cultivation (post-emergence) under controlled conditions in a glasshouse (at 24/16° C., day/night; 14 hours light; 65% humidity), the plants are sprayed with an aqueous spray solution derived from the formulation of the technical active ingredient in acetone/water (50:50) solution containing 0.5% Tween 20 (polyoxyethelyene sorbitan monolaurate, CAS RN 9005-64-5). Compounds are applied at 1000 g/h. The test plants are then grown in a glasshouse under controlled conditions in a glasshouse (at 24/16° C., day/night; 14 hours light; 65% humidity) and watered twice daily. After 13 days for pre and post-emergence, the test is evaluated for the percentage damage caused to the plant. The biological activities are shown in the following table on a five point scale (5=80-100%; 4=60-79%; 3=40-59%; 2=20-39%; 1=0-19%).

[2] = test system: Amaranthus retoflexus (AMARE); assay: Herbicidal glasshouse test, post-emergence; settings: post-emergence (sprayed after 8 days cultivation), 1000 g/h, evaluated after 13 days
Method: as §1

[3] = test system: Echinochloa crus-galli (ECHCG); assay: Herbicidal glasshouse test, post-emergence; settings: post-emergence (sprayed after 8 days cultivation), 1000 g/h, evaluated after 13 days
Method: as §1

[4] = test system: Ipomoea hederacea (IPOHE); assay: Herbicidal glasshouse test, post-emergence; settings: post-emergence (sprayed after 8 days cultivation), 1000 g/h, evaluated after 13 days
Method: as §1

[5] = test system: Setaria faberi (SETFA); assay: Herbicidal glasshouse test, post-emergence; settings: post-emergence (sprayed after 8 days cultivation), 1000 g/h, evaluated after 13 days
Method: as §1

[6] = test system: Solanum nigrum (SOLNI); assay: Herbicidal glasshouse test, post-emergence; settings: post-emergence (sprayed after 8 days cultivation), 1000 g/h, evaluated after 13 days
Method: as §1

[7] = test system: Alopecurus myosuroides (ALOMY); assay: Herbicidal glasshouse test, pre-emergence; settings: pre-emergence (sprayed after cultivation for one day), 1000 g/h, evaluated after 13 days
Method: as §1

[8] = test system: Amaranthus retoflexus (AMARE); assay: Herbicidal glasshouse test, pre-emergence; settings: pre-emergence (sprayed after cultivation for one day), 1000 g/h, evaluated after 13 days
Method: as §1

[9] = test system: Echinochloa crus-galli (ECHCG); assay: Herbicidal glasshouse test, pre-emergence; settings: pre-emergence (sprayed after cultivation for one day), 1000 g/h, evaluated after 13 days
Method: as §1

[10] = test system: Ipomoea hederacea (IPOHE); assay: Herbicidal glasshouse test, pre-emergence; settings: pre-emergence (sprayed after cultivation for one day), 1000 g/h, evaluated after 13 days
Method: as §1

[11] = test system: Setaria faberi (SETFA); assay: Herbicidal glasshouse test, pre-emergence; settings: pre-emergence (sprayed after cultivation for one day), 1000 g/h, evaluated after 13 days
Method: as §1

[12] = test system: Solanum nigrum (SOLNI); assay: Herbicidal glasshouse test, pre-emergence; settings: pre-emergence (sprayed after cultivation for one day), 1000 g/h, evaluated after 13 days
Method: as §1

| SMILES | percentage damage caused to the plant, five point scale, POST Application ALOMY [1] | percentage damage caused to the plant, five point scale, POST Application AMARE [2] | percentage damage caused to the plant, five point scale, POST Application ECHCG [3] | percentage damage caused to the plant, five point scale, POST Application IPOHE [4] | percentage damage caused to the plant, five point scale, POST Application SETFA [5] | percentage damage caused to the plant, five point scale, POST Application SOLNI [6] | percentage damage caused to the plant, five point scale, PRE Application ALOMY [7] | percentage damage caused to the plant, five point scale, PRE Application AMARE [8] | percentage damage caused to the plant, five point scale, PRE Application ECHCG [9] | percentage damage caused to the plant, five point scale, PRE Application IPOHE [10] | percentage damage caused to the plant, five point scale, PRE Application SETFA [11] | percentage damage caused to the plant, five point scale, PRE Application SOLNI [12] |
| --- | --- | --- | --- | --- | --- | --- | --- | --- | --- | --- | --- | --- |
| Cc1cc(C(=O)Nc2nnnn2C)c(=O)n(-c2ccc(Cl)cc2)n1 [Compound 1.012] | 5 (5=80-100%) | 5 (5=80-100%) | 5 (5=80-100%) | 5 (5=80-100%) | 5 (5=80-100%) | 5 (5=80-100%) | 5 (5=80-100%) | 5 (5=80-100%) | 5 (5=80-100%) | 3 (3=40-59%) | 5 (5=80-100%) | 5 (5=80-100%) |
| Cc1cc(C(=O)Nc2nnnn2C)c(=O)n(-c2ccc(F)c(F)c2)n1 [Compound 1.013] | 5 (5=80-100%) | 5 (5=80-100%) | 5 (5=80-100%) | 5 (5=80-100%) | 5 (5=80-100%) | 5 (5=80-100%) | 5 (5=80-100%) | 5 (5=80-100%) | 5 (5=80-100%) | 4 (4=60-79%) | 5 (5=80-100%) | 5 (5=80-100%) |
| Cc1cc(C(=O)Nc2nnnn2C)c(=O)n(-c2ccc(F)cc2)n1 [Compound 1.014] | 5 (5=80-100%) | 5 (5=80-100%) | 5 (5=80-100%) | 5 (5=80-100%) | 5 (5=80-100%) | 5 (5=80-100%) | 5 (5=80-100%) | 5 (5=80-100%) | 5 (5=80-100%) | 4 (4=60-79%) | 5 (5=80-100%) | 5 (5=80-100%) |
| Cc1cc(C(=O)Nc2nnnn2C)c(=O)n(Cc2cccc(F)c2)n1 [Compound 1.016] | 4 (4=60-79%) | 5 (5=80-100%) | 4 (4=60-79%) | 3 (3=40-59%) | 1 (1=0-19%) | 5 (5=80-100%) | 2 (2=20-39%) | 5 (5=80-100%) | 4 (4=60-79%) | 4 (4=60-79%) | 5 (5=80-100%) | 5 (5=80-100%) |
| COCCn1nc(C)cc(C(=O)Nc2nnnn2C)c1=O [Compound 1.017] | 5 (5=80-100%) | 5 (5=80-100%) | 5 (5=80-100%) | 5 (5=80-100%) | 5 (5=80-100%) | 5 (5=80-100%) | 5 (5=80-100%) | 5 (5=80-100%) | 5 (5=80-100%) | 5 (5=80-100%) | 5 (5=80-100%) | 5 (5=80-100%) |
| Cc1cc(C(=O)Nc2nnnn2C)c(=O)n(-c2cccc(C#N)c2)n1 [Compound 1.018] | 5 (5=80-100%) | 5 (5=80-100%) | 5 (5=80-100%) | 5 (5=80-100%) | 5 (5=80-100%) | 5 (5=80-100%) | 5 (5=80-100%) | 5 (5=80-100%) | 5 (5=80-100%) | 5 (5=80-100%) | 5 (5=80-100%) | 5 (5=80-100%) |
| Cc1cc(C(=O)Nc2nnnn2C)c(=O)n(-c2cc(Cl)ccc2C)n1 [Compound 1.019] | 5 (5=80-100%) | 5 (5=80-100%) | 5 (5=80-100%) | 5 (5=80-100%) | 5 (5=80-100%) | 5 (5=80-100%) | 5 (5=80-100%) | 5 (5=80-100%) | 5 (5=80-100%) | 5 (5=80-100%) | 5 (5=80-100%) | 5 (5=80-100%) |
| Cc1cc(C(=O)Nc2nnnn2C)c(=O)n(-c2ccc(F)cc2Br)n1 [Compound 1.020] | 5 (5=80-100%) | 5 (5=80-100%) | 5 (5=80-100%) | 5 (5=80-100%) | 5 (5=80-100%) | 5 (5=80-100%) | 5 (5=80-100%) | 5 (5=80-100%) | 5 (5=80-100%) | 5 (5=80-100%) | 5 (5=80-100%) | 5 (5=80-100%) |
